Activity calls are given as the source filed them.
Experiments:
Paired box protein Pax-8 = Paired box protein Pax-8 (Homo sapiens, UniProt Q06710); experiment: inhibitors of PAX8-driven TPO luciferase reporter, dose response, RMG-I cells, cherry-pick (AID 687027); format: functional, cell-based;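 also: luciferase reporter driven by Pax8 target thyroperoxidase promoter measured by SteadyGlo luminescence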
[1] = IGROV1 ovarian cancer cell cytotoxicity, dose response, PAX8 inhibitor project, plate reader, dry powder samples (AID 743043); format: functional, cell-based; settings: IGROV-1
[2] = cytotoxicity in OVCAR8 ovarian cancer cells, dose response, PAX8 project, cell-based, plate reader, dry powder samples (AID 743197); format: functional; settings: OVCAR-8
Cytochrome P450 2D6 = Cytochrome P450 2D6 (Homo sapiens, UniProt P10635);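 also: CYP2D6 member of a cytochrome P450 panel assay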
Sequence of Cytochrome P450 2D6 (P10635 whole entry): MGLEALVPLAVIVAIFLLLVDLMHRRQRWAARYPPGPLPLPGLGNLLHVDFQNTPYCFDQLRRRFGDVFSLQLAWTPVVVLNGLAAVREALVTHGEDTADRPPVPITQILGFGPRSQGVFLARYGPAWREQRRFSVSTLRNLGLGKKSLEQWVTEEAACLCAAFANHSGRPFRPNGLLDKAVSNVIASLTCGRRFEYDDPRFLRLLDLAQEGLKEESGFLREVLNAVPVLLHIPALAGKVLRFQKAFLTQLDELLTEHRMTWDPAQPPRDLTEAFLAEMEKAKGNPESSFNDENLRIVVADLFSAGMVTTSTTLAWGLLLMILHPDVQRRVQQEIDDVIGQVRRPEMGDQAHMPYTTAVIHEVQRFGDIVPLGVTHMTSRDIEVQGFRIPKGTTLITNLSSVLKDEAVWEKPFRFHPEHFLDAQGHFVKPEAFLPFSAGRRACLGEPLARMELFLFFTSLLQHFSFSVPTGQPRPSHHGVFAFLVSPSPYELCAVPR

[3] = NIH:OVCAR-3 ovarian cancer cell cytotoxicity, dose response, PAX8 inhibitor project, plate reader, dry powder samples (AID 743044); format: functional, cell-based
Cytochrome P450 2C9 = Cytochrome P450 2C9 (Homo sapiens, UniProt P11712)
[4] = inhibitors of firefly luciferase expression or activity, dose response, H4 neuroglioma cells, luminescence (AID 1990); format: functional, cell-based
cells [5] = format: functional, cell-based
[6] = Luminescence Cell-Based Dose Response HTS to Identify Inhibitors of 5'UTR Stem-Loop Driven Prion Protein mRNA Translation in H4 Neuroglioblastoma Cells. [Related pubchem assays: 1827 (Project Summary), 1813 (Primary HTS)]; format: functional
[7] = inhibitors of SNCA 5'UTR-driven reporter translation, confirmation, H4 neuroglioma cells, luminescence (AID 1988); format: functional, cell-based
cells [8] = format: functional, cell-based; remark: listed apart in the source
Nonstructural protein 1 = Nonstructural protein 1 (Influenza A virus, UniProt Q194T2); format: functional, Influenza A virus (A/California/07/2009(H1N1))
Sequence of Nonstructural protein 1 (Q194T2 whole entry): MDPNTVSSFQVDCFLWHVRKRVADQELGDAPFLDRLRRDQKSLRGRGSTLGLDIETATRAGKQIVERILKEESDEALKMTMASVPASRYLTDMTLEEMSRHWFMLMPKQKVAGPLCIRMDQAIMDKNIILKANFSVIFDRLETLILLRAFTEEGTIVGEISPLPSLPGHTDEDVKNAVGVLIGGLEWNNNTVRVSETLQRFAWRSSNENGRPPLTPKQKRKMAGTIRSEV

Vero [9] = experiment: cells; format: functional, cell-based; settings: Chlorocebus sabaeus
Vero [10] = experiment: cells; format: functional; settings: Chlorocebus sabaeus
[11] = biological target: Mitogen-activated protein kinase 10 (Homo sapiens, UniProt P53779); experiment: Dose response biochemical screening assay for inhibitors of c-Jun N-Terminal Kinase 3 (JNK3). [Related pubchem assays: 746 ]
Sequence of Mitogen-activated protein kinase 10 (P53779 whole entry): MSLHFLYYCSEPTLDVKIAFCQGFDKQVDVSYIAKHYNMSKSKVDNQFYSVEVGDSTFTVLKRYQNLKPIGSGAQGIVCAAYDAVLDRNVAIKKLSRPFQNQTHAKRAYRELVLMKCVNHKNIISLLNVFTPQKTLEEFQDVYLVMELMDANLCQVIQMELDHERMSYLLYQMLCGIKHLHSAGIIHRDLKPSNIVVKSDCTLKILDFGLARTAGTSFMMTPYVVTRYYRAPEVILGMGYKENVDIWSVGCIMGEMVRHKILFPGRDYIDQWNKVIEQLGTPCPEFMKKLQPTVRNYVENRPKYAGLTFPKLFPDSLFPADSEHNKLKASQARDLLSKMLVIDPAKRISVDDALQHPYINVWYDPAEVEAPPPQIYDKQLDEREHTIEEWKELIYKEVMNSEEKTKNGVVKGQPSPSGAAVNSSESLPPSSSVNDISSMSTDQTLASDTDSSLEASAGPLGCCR

[12] = P. falciparum 3D7-ScDHODH growth inhibitors, dose response, SYBR Green, dry powder samples (AID 1159570); format: functional, cell-based;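 also: parasite growth measured after 72 hours of compound exposure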
[13] = P. falciparum Dd2 growth inhibitors, dose response, SYBR Green, cherry-picked samples (AID 1159567); format: functional, cell-based
[14] = P. falciparum Dd2 growth inhibitors, dose response, SYBR Green, dry powder samples (AID 1159566); format: functional, cell-based;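 also: potency for growth inhibition with lower SYBR green DNA signal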
[15] = P. falciparum ATP4 D1247Y mutant growth inhibitors, dose response, NITD609-resistant line, SYBR Green, dry powder (AID 1159571); format: functional, cell-based;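 also: parasites synchronized at ring stage by sorbitol before testing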
[16] = biological target: T1, Voltage-gated N-type calcium channel alpha-1B subunit/Amyloid beta A4 precursor protein-binding family A member 1 (Homo sapiens, UniProt Q00975+Q02410); format: protein assay
T1 sequence (Q00975 whole entry): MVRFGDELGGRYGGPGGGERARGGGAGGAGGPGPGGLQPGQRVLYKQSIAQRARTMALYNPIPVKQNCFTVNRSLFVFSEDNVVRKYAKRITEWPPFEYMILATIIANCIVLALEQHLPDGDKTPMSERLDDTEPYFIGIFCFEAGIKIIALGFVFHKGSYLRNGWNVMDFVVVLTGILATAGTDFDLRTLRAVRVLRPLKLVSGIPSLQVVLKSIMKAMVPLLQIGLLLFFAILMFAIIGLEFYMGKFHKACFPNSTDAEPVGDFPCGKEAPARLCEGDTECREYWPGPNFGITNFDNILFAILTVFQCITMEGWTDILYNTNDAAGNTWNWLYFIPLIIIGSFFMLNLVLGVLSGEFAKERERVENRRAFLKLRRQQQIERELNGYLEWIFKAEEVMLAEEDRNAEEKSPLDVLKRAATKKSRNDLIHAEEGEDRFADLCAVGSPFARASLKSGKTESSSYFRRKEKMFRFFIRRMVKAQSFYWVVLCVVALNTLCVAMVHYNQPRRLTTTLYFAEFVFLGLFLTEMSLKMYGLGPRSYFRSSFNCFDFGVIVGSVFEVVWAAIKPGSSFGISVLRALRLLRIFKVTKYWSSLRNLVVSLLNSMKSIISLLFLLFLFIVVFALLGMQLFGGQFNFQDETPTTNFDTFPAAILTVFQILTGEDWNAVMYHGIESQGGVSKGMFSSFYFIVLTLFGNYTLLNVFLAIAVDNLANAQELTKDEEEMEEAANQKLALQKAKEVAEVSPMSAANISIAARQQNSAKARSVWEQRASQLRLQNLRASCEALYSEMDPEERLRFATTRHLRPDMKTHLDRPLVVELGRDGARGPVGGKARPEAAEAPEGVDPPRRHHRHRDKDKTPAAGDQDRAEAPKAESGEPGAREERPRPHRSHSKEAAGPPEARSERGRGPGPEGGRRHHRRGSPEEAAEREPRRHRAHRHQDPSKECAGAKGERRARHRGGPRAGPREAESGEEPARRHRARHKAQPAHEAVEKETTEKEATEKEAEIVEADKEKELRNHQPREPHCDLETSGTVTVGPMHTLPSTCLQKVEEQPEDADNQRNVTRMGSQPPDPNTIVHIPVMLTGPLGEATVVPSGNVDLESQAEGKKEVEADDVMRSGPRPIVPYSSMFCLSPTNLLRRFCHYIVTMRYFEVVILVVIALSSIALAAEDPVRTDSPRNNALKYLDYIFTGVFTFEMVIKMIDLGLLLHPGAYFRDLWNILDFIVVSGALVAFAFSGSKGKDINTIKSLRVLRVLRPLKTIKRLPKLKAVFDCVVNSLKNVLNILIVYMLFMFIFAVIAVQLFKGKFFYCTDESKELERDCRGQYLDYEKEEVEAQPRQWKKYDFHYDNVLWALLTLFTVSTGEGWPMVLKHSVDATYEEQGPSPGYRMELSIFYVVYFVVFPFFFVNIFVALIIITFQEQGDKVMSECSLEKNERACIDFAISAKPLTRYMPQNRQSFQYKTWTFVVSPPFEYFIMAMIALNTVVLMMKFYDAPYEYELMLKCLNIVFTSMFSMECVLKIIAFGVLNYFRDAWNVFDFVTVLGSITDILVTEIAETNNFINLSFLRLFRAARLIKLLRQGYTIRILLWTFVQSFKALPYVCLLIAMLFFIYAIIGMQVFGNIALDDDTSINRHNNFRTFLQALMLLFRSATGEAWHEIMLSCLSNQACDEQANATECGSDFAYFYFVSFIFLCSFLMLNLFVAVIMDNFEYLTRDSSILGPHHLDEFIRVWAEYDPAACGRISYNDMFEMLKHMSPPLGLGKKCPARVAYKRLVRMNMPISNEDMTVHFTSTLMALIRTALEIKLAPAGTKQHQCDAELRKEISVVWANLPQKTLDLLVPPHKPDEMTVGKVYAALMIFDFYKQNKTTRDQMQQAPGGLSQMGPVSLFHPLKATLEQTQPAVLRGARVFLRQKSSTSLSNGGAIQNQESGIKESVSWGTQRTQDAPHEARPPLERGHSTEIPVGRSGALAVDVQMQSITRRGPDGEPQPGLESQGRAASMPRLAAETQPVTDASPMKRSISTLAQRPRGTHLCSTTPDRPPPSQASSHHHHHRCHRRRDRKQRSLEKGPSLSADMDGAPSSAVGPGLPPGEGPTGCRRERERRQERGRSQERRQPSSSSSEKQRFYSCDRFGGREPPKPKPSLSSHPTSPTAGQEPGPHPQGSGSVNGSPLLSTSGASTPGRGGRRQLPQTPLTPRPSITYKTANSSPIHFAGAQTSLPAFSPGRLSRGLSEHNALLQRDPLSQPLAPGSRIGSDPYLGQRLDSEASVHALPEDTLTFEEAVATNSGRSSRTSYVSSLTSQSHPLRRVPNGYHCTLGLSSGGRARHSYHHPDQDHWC
T1 sequence (Q02410 whole entry): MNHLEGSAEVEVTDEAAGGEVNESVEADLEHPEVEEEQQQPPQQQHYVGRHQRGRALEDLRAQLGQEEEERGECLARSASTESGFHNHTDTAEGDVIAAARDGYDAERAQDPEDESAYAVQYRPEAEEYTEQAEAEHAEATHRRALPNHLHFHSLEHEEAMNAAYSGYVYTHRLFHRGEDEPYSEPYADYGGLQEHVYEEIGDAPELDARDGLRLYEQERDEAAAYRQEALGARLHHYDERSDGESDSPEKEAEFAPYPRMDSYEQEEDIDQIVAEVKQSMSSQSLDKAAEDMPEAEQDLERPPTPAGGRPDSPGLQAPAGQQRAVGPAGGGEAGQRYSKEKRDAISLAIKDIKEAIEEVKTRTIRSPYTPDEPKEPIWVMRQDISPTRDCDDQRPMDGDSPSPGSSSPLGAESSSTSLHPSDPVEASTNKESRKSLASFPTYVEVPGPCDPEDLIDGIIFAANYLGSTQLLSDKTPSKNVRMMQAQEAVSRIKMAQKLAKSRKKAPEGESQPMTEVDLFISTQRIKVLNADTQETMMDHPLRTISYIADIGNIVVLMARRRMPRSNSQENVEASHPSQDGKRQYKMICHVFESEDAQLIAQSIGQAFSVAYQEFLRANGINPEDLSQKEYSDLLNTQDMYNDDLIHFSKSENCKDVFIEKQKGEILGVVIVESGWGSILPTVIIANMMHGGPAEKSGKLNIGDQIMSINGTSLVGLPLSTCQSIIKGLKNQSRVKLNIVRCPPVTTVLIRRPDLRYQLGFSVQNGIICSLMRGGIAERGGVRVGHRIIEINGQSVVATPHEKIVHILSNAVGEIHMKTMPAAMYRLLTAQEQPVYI

[17] = biological target: T1, Voltage-gated N-type calcium channel alpha-1B subunit/Amyloid beta A4 precursor protein-binding family A member 1; format: protein assay; remark: listed apart in the source
[18] = inhibitors of intracellular T. cruzi replication, confirmation, NIH3T3 host cells, beta-gal luminescence (AID 2044); format: functional, cell-based;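 also: intracellular parasites grown in NIH/3T3 mouse fibroblasts as host cells; luminescent beta-galactosidase reporter signal from transgenic T. cruzi replicating inside host cells; inhibitors lower the luminescence signal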
[19] = cytotoxicity toward NIH3T3 fibroblasts, dose response, counter-screen, cell-based, ATP luminescence, mouse fibroblasts (AID 2010); format: functional;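 also: cells exposed to compound for about 90 hours before reading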
Genome polyprotein = Genome polyprotein (dengue virus type 2, UniProt P29990); experiment: Dengue-2 NS5 methyltransferase inhibitors, primary screen, biochemical, confirmation dose response (AID 588689); format: functional
[20] = biological target: T2, Histone-lysine N-methyltransferase NSD2 (Homo sapiens, UniProt O96028); format: biochemical
T2 sequence (O96028 whole entry): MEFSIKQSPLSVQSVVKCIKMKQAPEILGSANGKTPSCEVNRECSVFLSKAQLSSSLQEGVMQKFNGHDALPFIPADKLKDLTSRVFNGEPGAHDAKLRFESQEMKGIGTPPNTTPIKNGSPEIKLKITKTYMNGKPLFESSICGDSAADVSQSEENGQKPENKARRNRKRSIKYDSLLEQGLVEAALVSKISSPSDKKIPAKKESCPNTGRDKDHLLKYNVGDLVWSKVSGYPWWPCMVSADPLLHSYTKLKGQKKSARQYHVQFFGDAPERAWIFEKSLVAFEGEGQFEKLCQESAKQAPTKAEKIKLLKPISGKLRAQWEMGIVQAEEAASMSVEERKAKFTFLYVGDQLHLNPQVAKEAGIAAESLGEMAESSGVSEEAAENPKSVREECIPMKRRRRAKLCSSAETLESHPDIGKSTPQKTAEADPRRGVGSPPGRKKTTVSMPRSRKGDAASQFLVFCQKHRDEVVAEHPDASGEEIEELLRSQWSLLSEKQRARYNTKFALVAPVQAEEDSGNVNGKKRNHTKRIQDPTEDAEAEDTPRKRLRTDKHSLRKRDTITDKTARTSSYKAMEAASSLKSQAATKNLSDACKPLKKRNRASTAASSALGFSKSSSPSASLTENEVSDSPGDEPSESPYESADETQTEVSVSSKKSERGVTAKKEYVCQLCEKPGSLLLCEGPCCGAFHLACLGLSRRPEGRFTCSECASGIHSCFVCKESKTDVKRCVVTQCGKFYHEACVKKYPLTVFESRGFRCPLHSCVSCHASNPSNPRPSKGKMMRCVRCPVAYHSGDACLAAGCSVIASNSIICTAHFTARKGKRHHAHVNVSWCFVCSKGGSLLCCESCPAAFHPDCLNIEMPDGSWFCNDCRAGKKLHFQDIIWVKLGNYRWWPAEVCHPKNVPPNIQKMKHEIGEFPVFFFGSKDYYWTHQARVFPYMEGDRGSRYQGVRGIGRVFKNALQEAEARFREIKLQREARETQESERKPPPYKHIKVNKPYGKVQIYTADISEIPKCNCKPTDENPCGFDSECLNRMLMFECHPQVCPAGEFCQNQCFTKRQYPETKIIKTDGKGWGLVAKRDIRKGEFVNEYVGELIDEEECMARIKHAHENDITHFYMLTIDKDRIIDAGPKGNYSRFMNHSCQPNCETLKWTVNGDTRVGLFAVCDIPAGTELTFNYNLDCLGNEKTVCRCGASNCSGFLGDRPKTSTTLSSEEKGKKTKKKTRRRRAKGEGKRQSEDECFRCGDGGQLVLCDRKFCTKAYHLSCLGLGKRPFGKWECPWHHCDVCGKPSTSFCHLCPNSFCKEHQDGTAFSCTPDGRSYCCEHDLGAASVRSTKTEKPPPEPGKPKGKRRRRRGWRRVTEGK

[21] = biological target: Eukaryotic translation initiation factor 4E (Mus musculus, UniProt P63073); experiment: eIF4E–eIF4G protein interaction inhibitors, dose response, biochemical, TR-FRET (AID 855); format: functional;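 also: potency for disrupting eIF4E binding to eIF4GI seen as loss of FRET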
Sequence of Eukaryotic translation initiation factor 4E (P63073 whole entry): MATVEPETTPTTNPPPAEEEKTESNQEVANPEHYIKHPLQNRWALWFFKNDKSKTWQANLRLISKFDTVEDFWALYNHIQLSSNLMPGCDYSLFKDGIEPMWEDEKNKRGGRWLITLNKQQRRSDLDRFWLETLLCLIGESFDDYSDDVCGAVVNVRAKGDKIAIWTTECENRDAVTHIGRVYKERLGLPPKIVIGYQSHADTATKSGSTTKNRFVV

[22] = biological target: T3, Short transient receptor potential channel 4 (Mus musculus, UniProt Q9QUQ5); experiment: mouse TRPC4 channel inhibitors, dose response, cell-based, HEK293 TRPC4/mu-opioid, Fluo-4 calcium (AID 434942); format: functional;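 also: potency of inhibitors blocking the TRPC4 calcium response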
T3 sequence (Q9QUQ5 whole entry): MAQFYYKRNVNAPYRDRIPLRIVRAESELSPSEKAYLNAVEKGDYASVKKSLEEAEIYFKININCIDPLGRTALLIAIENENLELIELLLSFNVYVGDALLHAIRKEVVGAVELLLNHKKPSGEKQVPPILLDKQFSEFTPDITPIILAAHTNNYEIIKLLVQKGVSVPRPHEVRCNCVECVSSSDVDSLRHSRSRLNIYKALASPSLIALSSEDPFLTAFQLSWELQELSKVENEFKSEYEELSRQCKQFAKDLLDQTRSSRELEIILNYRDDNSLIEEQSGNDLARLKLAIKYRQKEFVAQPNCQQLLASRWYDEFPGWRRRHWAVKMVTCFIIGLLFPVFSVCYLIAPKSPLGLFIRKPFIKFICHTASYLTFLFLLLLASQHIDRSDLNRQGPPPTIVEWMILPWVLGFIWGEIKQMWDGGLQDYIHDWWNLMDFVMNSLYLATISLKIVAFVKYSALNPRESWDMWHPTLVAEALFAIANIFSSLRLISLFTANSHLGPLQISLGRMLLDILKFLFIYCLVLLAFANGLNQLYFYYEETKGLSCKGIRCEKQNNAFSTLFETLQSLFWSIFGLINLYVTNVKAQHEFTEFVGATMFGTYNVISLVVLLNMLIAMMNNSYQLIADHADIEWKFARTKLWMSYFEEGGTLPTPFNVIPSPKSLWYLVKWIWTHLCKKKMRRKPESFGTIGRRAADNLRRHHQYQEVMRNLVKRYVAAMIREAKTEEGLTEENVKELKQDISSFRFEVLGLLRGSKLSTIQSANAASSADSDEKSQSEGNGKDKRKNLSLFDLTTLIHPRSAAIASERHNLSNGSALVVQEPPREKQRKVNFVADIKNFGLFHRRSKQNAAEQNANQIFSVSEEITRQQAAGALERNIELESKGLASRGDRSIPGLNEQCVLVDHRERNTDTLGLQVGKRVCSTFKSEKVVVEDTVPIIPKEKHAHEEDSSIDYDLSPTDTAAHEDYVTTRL

[23] = THP-1 cell cytotoxicity, dose response, cytotoxicity control for non-replicating M. tuberculosis project (AID 489025); format: functional
cells [24] = format: functional

Sequence of Paired box protein Pax-8 (Q06710 whole entry): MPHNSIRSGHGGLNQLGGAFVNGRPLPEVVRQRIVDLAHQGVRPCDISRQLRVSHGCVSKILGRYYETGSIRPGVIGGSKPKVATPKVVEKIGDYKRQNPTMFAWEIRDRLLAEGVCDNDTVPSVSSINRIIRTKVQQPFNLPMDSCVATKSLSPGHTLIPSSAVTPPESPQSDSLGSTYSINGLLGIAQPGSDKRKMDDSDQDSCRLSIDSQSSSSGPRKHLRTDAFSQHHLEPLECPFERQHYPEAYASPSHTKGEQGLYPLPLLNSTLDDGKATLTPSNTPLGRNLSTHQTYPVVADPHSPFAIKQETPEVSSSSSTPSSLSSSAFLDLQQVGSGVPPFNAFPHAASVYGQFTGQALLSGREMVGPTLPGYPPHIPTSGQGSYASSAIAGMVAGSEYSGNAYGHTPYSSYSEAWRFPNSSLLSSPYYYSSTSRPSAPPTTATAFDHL

In the case of C[C@H]1CCCCO[C@H](CN(C)C(=O)Nc2ccc(C(F)(F)F)cc2)[C@@H](C)CN([C@@H](C)CO)C(=O)c2cc(NS(=O)(=O)c3ccccc3)ccc2O1, the AC50 (Paired box protein Pax-8) is reported as 6.7 µM (active), the AC50 [1] is reported as 40.6 µM (active) and the AC50 [2] is reported as 45.8 µM (active).
For CCOC(=O)c1cnc(-c2ccccc2)nc1Oc1ccc(Cl)cc1, the AC50 (Cytochrome P450 2D6) was “inconclusive”.
In the case of C[C@@H]1CN([C@H](C)CO)C(=O)c2cc(NS(=O)(=O)c3ccc(Cl)cc3)ccc2O[C@@H](C)CCCCO[C@@H]1CN(C)CC1CCCCC1, the AC50 (Paired box protein Pax-8) is reported as 9.23 µM (active), the AC50 [3] is reported as 9.37 µM (active) and the AC50 [1] is reported as 44.4 µM (active). For the same compound, the AC50 [2] was 18.8 µM (active).
With Clc1ccc(-n2nnnc2CN2CCOCC2)cc1 the AC50 (Cytochrome P450 2D6) was “inconclusive” and the AC50 (Cytochrome P450 2C9) was “inconclusive”.
In the case of O=[N+]([O-])c1cccc(/C=N/Nc2nc(NCc3ccccc3)nc(N3CCOCC3)n2)c1O, the EC50 [4] is reported as 11.4 µM (active), the EC50 (cells [5]) is reported as 13.4 µM (active) and the EC50 [6] is reported as 14.1 µM (active). The EC50 [7] was 15 µM (active), the EC50 (cells [8]) was > 350 µM (not active) and the IC50 (Nonstructural protein 1) was 6.2 µM (active). The IC50 (Vero [9]) was 12.2 µM (active) and the CC50 (Vero [10]) was 14.7 µM (active).
For CCOC(=O)CCCc1sc(N)nc1-c1[nH]c(O)nc1C, the IC50 [11] was > 93.1 µM (not active).
With O=C(CCn1cnc2ccccc2c1=O)Nc1ccc(S(=O)(=O)N2CCCCC2)cc1 the IC50 [11] was 38.4 µM (not active).
With CCN1CCCC1CNC(=O)C(=O)Nc1ccccc1OC (stereo unspecified) the AC50 (Cytochrome P450 2D6) was “inconclusive” and the AC50 (Cytochrome P450 2C9) was “inconclusive”.
In the case of O=C(O)[C@H]1C[C@H](C(=O)O)N1, the AC50 (Cytochrome P450 2D6) is reported as “inconclusive”.
In the case of O=C(Nc1ccccc1F)N1CCCCN2[C@@H](CO)[C@H](c3ccc(C#Cc4cccnc4)cc3)[C@@H]2C1, the AC50 [12] is reported as 0.652 µM (active), the AC50 [13] is reported as 1.1 µM (active) and the AC50 [14] is reported as 0.949 µM (active). The AC50 [15] was 0.824 µM (active).
In the case of Cc1cc(O)ccc1-c1cnc2ccccc2n1, the IC50 [11] is reported as 28.1 µM (not active).
In the case of COc1ccc(CC(=O)Nc2cc(C)ccn2)cc1, the IC50 [11] is reported as 21.4 µM (not active).
For COc1ccc(N2C(=O)NC(=O)/C(=C\c3ccc([N+](=O)[O-])s3)C2=O)cc1, the IC50 [16] was 18.2 µM (active), the IC50 [17] was 10.3 µM (active) and the EC50 [18] was 3.77 µM (active). For the same compound, the EC50 [19] was > 60 µM (inconclusive), the IC50 (Genome polyprotein) was 39.1 µM (active) and the AC50 [20] was > 20 µM (inactive).
For CCN(CC)CCCNC(=O)CC1Sc2ccccc2NC1=O (stereo unspecified), the IC50 [21] was > 64 µM (inactive).
For CC(C)CN(CC(C)C)c1ccc(C=C2C(=O)NC(=S)NC2=O)cc1[N+](=O)[O-], the EC50 [22] was 1.88 µM (active), the IC50 [21] was 42.1 µM (inactive) and the IC50 (Genome polyprotein) was 15.9 µM (active).
In the case of CCOc1cc(CNCCCN2CCOCC2)ccc1OCC(=O)Nc1cccc2ccccc12, the IC50 (Vero [9]) is reported as 18.6 µM (active) and the CC50 (Vero [10]) is reported as > 25 µM (active).
For CCC(=O)Nc1ccc(C(=O)NNC(=O)c2cc([N+](=O)[O-])cc([N+](=O)[O-])c2)cc1, the CC50 [23] was > 40 µM (active) and the IC50 (cells [24]) was 10.3 µM (active).
With Cc1ccc(S(=O)(=O)Nc2ccc3c(c2)C(=O)N([C@@H](C)CO)C[C@H](C)[C@@H](CN(C)Cc2ccc(C(F)(F)F)cc2)OCCCC[C@H](C)O3)cc1 the AC50 (Paired box protein Pax-8) was 7.48 µM (active), the AC50 [3] was 24.1 µM (active) and the AC50 [1] was 29.5 µM (active). For the same compound, the AC50 [2] was 46.9 µM (active).
In the case of Cc1cccn2cc(COc3ccc(-c4ccccc4)cc3)nc12, the IC50 (Vero [9]) is reported as 11.6 µM (active) and the CC50 (Vero [10]) is reported as > 25 µM (active).
For COc1cc(NC(=O)c2ccccc2)ccc1NC(=O)c1cc2ccccc2o1, the IC50 [16] was > 56.8 µM (not active) and the IC50 [17] was > 50 µM (inactive).

Source: ChEMBL document CHEMBL1201862, “PubChem BioAssay data set” (2004)
